Where two headings read alike, the source gives them in different places.
Columns and labels:
[1] = molecular target: T1, Recombinant STAT3 protein (STAT3 (G127-I722)) (Homo sapiens, UniProt P40763); test: STAT3 Fluorescence Polarization (FP) Assay; type: binding; details: STAT3 (G127-I722) 25 nM, probe 5-FAM-GpYLPQTV-NH2 2 nM, 45-minute incubation; read-out: STAT3 (FP assay IC50 class)
T1 construct: Recombinant STAT3 protein (STAT3 (G127-I722))
Outline: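 Compounds in serial dilution receive a premix of STAT3 (G127-I722, 25 nM) and fluorescent phosphotyrosine peptide 5-FAM-GpYLPQTV-NH2 (2 nM) at pH 7.4. After 45 min at room temperature, FP is measured and IC50 derived by nonlinear regression.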

[2] = molecular target: T2, Recombinant STAT6 protein (STAT6 (W123-T658)) (Homo sapiens, UniProt P42226); test: STAT6 Fluorescence Polarization (FP) Assay; type: binding; details: STAT6 (W123-T658) 250 nM, 45-minute incubation, read-out: STAT6 (FP assay IC50 class)
T2 construct: Recombinant STAT6 protein (STAT6 (W123-T658))
T2 sequence (P42226 123-658): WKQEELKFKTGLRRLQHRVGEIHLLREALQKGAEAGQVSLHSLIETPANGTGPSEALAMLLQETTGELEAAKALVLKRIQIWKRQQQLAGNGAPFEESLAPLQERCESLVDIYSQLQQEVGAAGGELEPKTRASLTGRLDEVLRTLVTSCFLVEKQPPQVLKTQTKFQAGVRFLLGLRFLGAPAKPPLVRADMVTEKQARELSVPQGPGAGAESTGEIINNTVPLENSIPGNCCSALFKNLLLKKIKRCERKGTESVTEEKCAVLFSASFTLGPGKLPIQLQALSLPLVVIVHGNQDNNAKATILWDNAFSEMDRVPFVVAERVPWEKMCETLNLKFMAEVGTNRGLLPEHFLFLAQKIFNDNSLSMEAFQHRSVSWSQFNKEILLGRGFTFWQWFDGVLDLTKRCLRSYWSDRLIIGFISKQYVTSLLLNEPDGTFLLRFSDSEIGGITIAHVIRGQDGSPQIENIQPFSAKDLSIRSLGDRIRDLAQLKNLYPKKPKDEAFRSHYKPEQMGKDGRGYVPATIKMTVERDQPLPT
Outline: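 STAT6 (W123-T658) at 250 nM was mixed with 2 nM 5-FAM-labeled phosphotyrosine peptide probe in HEPES pH 7.4 buffer with NaCl, EDTA, Tween 20 and DTT, then added to serially diluted compounds at 1% DMSO final. Polarization was read after 45 min at room temperature; IC50 came from nonlinear regression of mP versus log concentration.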

T1 sequence (P40763 127-722): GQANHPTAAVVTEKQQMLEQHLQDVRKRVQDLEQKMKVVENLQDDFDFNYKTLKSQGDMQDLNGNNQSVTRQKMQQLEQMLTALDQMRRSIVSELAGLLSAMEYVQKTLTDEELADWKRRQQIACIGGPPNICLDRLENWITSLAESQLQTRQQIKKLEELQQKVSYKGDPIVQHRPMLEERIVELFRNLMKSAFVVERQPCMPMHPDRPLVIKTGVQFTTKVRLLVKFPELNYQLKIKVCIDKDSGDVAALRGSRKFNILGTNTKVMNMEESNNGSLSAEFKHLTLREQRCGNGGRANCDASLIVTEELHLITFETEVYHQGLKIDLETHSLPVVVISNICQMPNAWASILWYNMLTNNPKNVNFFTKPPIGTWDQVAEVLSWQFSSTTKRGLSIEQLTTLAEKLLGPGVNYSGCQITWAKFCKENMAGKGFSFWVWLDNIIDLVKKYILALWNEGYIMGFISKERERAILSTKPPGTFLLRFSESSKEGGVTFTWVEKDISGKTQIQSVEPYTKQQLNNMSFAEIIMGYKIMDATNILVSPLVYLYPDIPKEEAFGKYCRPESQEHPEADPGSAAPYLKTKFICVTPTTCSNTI

Structure (SMILES)	IC50 [1]	IC50 ([2]; probe 5-FAM-Ap[…]-NH2 2 nM)	IC50 ([2]; probe 5-FAM-ApYKPFQDLI-NH2 2 nM)
COC1CN(c2ccncc2C2CN(C(=O)[C@@H]3CC[C@@H]4CCC[C@H](NC(=O)c5cc6cc([C@@H](F)P(=O)(O)O)ccc6s5)C(=O)N43)C2)C1 [Compound 859, ((S)-fluoro(2-(((3S,6S,9aS)-3-(3-(4-(3-methoxyazetidin-1-yl)pyridin-3-yl)azetidine-1-carbonyl)-5-oxooctahydro-1H-pyrrolo[1,2-a]azepin-6-yl)carbamoyl)benzo [b]thiophen-5-yl)methyl) phosphonic acid]	< 100 nM	0.3 to 3 µM	
C[C@@H]1COCCN1c1ccncc1C1CN(C(=O)[C@@H]2CC[C@@H]3CCC[C@H](NC(=O)c4cc5cc(CP(=O)(O)O)ccc5s4)C(=O)N32)C1 [Compound 860, ((2-(((3S,6S,9aS)-3-(3-(4-((R)-3-methylmorpholino)pyridin-3-yl)azetidine-1-carbonyl)-5-oxooctahydro-1H-pyrrolo[1,2-a]azepin-6-yl)carbamoyl)benzo [b]thiophen-5-yl)methyl) phosphonic acid]	100 to 1000 nM	3 to 30 µM	
CN(C)c1ncncc1C1CN(C(=O)[C@@H]2CC[C@@H]3CCC[C@H](NC(=O)c4cc5cc(CP(=O)(O)O)ccc5s4)C(=O)N32)C1 [Compound 863, ((2-(((3S,6S,9aS)-3-(3-(4-(dimethylamino)pyrimidin-5-yl)azetidine-1-carbonyl)-5-oxooctahydro-1H-pyrrolo[1,2-a]azepin-6-yl)carbamoyl)benzo [b]thiophen-5-yl)methyl) phosphonic acid]	< 100 nM	3 to 30 µM	
O=C(N[C@H]1CCC[C@H]2CC[C@@H](C(=O)N3CC(c4cccnc4)C3)N2C1=O)c1cc2cc(CP(=O)(O)O)c(F)cc2[nH]1 [Compound 864, ((6-fluoro-2-(((3S,6S,9aS)-5-oxo-3-(3-(pyridin-3-yl)azetidine-1-carbonyl)octahydro-1H-pyrrolo[1,2-a]azepin-6-yl)carbamoyl)-1H-indol-5-yl)methyl) phosphonic acid]	> 10000 nM	3 to 30 µM	
O=C(N[C@H]1CCCC[C@H]2CC[C@@H](C(=O)N3CCC(c4cc[nH]c(=O)c4)C3)N2C1=O)c1ccc2ccc(C(F)(F)P(=O)(O)O)cc2c1 (stereo partly drawn) [Compound 866, (difluoro(7-(((3S,6S,10aS)-5-oxo-3-(3-(2-oxo-1,2-dihydropyridin-4-yl)pyrrolidine-1-carbonyl)decahydropyrrolo[1,2-a]azocin-6-yl)carbamoyl)naphthalen-2-yl)methyl) phosphonic acid]	100 to 1000 nM	≤ 0.3 µM	
O=C(N[C@H]1CCC[C@H]2CC[C@@H](C(=O)N3CC(c4cccnc4)C3)N2C1=O)c1cc2cc([C@H](F)P(=O)(O)O)ccc2s1 [Compound 870, ((R)-fluoro(2-(((3S,6S,9aS)-5-oxo-3-(3-(pyridin-3-yl)azetidine-1-carbonyl)octahydro-1H-pyrrolo[1,2-a]azepin-6-yl)carbamoyl)benzo [b]thiophen-5-yl)methyl) phosphonic acid]	< 100 nM	3 to 30 µM	
O=C(N[C@H]1CCC[C@H]2CC[C@@H](C(=O)N3CC(c4cccnc4)C3)N2C1=O)c1cc2cc([C@@H](F)P(=O)(O)O)ccc2s1 [Compound 873, ((S)-fluoro(2-(((3S,6S,9aS)-5-oxo-3-(3-(802yridine-3-yl)azetidine-1-carbonyl)octahydro-1H-pyrrolo[1,2-a]azepin-6-yl)carbamoyl)benzo [b]thiophen-5-yl)methyl) phosphonic acid]	< 100 nM		3 to 30 µM
O=C(N[C@H]1CCCC[C@H]2CC[C@@H](C(=O)N3CC(c4cc[nH]c(=O)c4)CC34CC4)N2C1=O)c1ccc2ccc(C(F)(F)P(=O)(O)O)cc2c1 (stereo partly drawn) [Compound 877, (difluoro(7-(((3S,6S,10aS)-5-oxo-3-(6-(2-oxo-1,2-dihydropyridin-4-yl)-4-azaspiro[2.4]heptane-4-carbonyl)decahydropyrrolo[1,2-a]azocin-6-yl)carbamoyl)naphthalen-2-yl)methyl) phosphonic acid]	1000 to 10000 nM	≤ 0.3 µM	
O=C(N[C@H]1CCCC[C@H]2CC[C@@H](C(=O)N3CC(c4ccccc4)CC34CC4)N2C1=O)c1ccc2ccc(C(F)(F)P(=O)(O)O)cc2c1 (stereo partly drawn) [Compound 880, (difluoro(7-(((3S,6S,10aS)-5-oxo-3-(6-phenyl-4-azaspiro[2.4]heptane-4-carbonyl)decahydropyrrolo[1,2-a]azocin-6-yl)carbamoyl)naphthalen-2-yl)methyl) phosphonic acid]	1000 to 10000 nM	≤ 0.3 µM	
O=C(N[C@H]1CCCC[C@H]2CC[C@@H](C(=O)N3C[C@H](c4cc[nH]c(=O)c4)CC34CC4)N2C1=O)c1ccc2ccc(CP(=O)(O)O)cc2c1 [Compound 882, ((7-(((3S,6S,10aS)-5-oxo-3-((S)-6-(2-oxo-1,2-dihydropyridin-4-yl)-4-azaspiro[2.4]heptane-4-carbonyl)decahydropyrrolo[1,2-a]azocin-6-yl)carbamoyl)naphthalen-2-yl)methyl) phosphonic acid]	1000 to 10000 nM	0.3 to 3 µM	
O=C(N[C@H]1CCCC[C@H]2CC[C@@H](C(=O)N3C[C@@H](c4cc[nH]c(=O)c4)CC34CC4)N2C1=O)c1ccc2ccc(CP(=O)(O)O)cc2c1 [Compound 883, ((7-(((3S,6S,10aS)-5-oxo-3-((R)-6-(2-oxo-1,2-dihydropyridin-4-yl)-4-azaspiro[2.4]heptane-4-carbonyl)decahydropyrrolo[1,2-a]azocin-6-yl)carbamoyl)naphthalen-2-yl)methyl) phosphonic acid]	1000 to 10000 nM	0.3 to 3 µM	
O=C(N[C@H]1CCCC[C@H]2CC[C@@H](C(=O)N3CC(c4ccccc4)CC34CC4)N2C1=O)c1ccc2ccc(CP(=O)(O)O)cc2c1 (stereo partly drawn) [Compound 884, ((7-(((3S,6S,10aS)-5-oxo-3-(6-phenyl-4-azaspiro[2.4]heptane-4-carbonyl)decahydropyrrolo[1,2-a]azocin-6-yl)carbamoyl)naphthalen-2-yl)methyl) phosphonic acid]	1000 to 10000 nM	0.3 to 3 µM	
C/C1=C/[C@H]2CC[C@@H](C(=O)N3CC(c4ccccc4)CC34CC4)N2C(=O)[C@@H](NC(=O)c2ccc3ccc(CP(=O)(O)O)cc3c2)CC1 (stereo partly drawn) [Compound 885, ((7-(((3S,6S,10aR,Z)-9-methyl-5-oxo-3-(6-phenyl-4-azaspiro[2.4]heptane-4-carbonyl)-1,2,3,5,6,7,8,10a-octahydropyrrolo[1,2-a]azocin-6-yl)carbamoyl)naphthalen-2-yl)methyl) phosphonic acid]	1000 to 10000 nM	0.3 to 3 µM	
C[C@@H]1CC[C@H](NC(=O)c2ccc3ccc(CP(=O)(O)O)cc3c2)C(=O)N2[C@H](CC[C@H]2C(=O)N2CC(c3ccccc3)CC23CC3)C1 (stereo partly drawn) [Compound 887, ((7-(((3S,6S,9R,10aR)-9-methyl-5-oxo-3-(6-phenyl-4-azaspiro[2.4]heptane-4-carbonyl)decahydropyrrolo[1,2-a]azocin-6-yl)carbamoyl)naphthalen-2-yl)methyl) phosphonic acid]	1000 to 10000 nM	0.3 to 3 µM	
C[C@H]1CC[C@H](NC(=O)c2ccc3ccc(CP(=O)(O)O)cc3c2)C(=O)N2[C@H](CC[C@H]2C(=O)N2CC(c3ccccc3)CC23CC3)C1 (stereo partly drawn) [Compound 888, ((7-(((3S,6S,9S,10aR)-9-methyl-5-oxo-3-(6-phenyl-4-azaspiro[2.4]heptane-4-carbonyl)decahydropyrrolo[1,2-a]azocin-6-yl)carbamoyl)naphthalen-2-yl)methyl) phosphonic acid]	1000 to 10000 nM	0.3 to 3 µM	
O=C(N[C@H]1CCCC[C@H]2CC[C@@H](C(=O)N3CC(c4cccnc4)CC34CC4)N2C1=O)c1ccc2ccc(C(F)P(=O)(O)O)cc2c1 (stereo partly drawn) [Compound 891, (fluoro(7-(((3S,6S,10aS)-5-oxo-3-(6-(pyridin-3-yl)-4-azaspiro[2.4]heptane-4-carbonyl)decahydropyrrolo[1,2-a]azocin-6-yl)carbamoyl)naphthalen-2-yl)methyl) phosphonic acid]	1000 to 10000 nM	≤ 0.3 µM	
O=C(N[C@H]1CCCC[C@H]2CC[C@@H](C(=O)N3CCC(c4cccnc4)C3)N2C1=O)c1ccc2ccc(C(F)P(=O)(O)O)cc2c1 (stereo partly drawn) [Compound 892, (fluoro(7-(((3S,6S,10aS)-5-oxo-3-(3-(pyridin-3-yl)pyrrolidine-1-carbonyl)decahydropyrrolo[1,2-a]azocin-6-yl)carbamoyl)naphthalen-2-yl)methyl) phosphonic acid]	1000 to 10000 nM	0.3 to 3 µM	
